Data from the CheMixHub ionic liquid set.
± gives the uncertainty stated by the source.

Assay: xn = mol fraction of the nth substance listed
Conditions: 101 kPa

SMILES	electrical conductivity (298.15 K, x1 = 0.4491)	viscosity (298.15 K, x1 = 0.4491)	electrical conductivity (308.15 K, x1 = 0.328)	viscosity (308.15 K, x1 = 0.328)	electrical conductivity (308.15 K, x1 = 0.4491)	viscosity (308.15 K, x1 = 0.4491)	electrical conductivity (313.15 K, x1 = 0.0999)	viscosity (313.15 K, x1 = 0.0999)	electrical conductivity (313.15 K, x1 = 0.1703)	viscosity (313.15 K, x1 = 0.1703)	electrical conductivity (313.15 K, x1 = 0.328)	viscosity (313.15 K, x1 = 0.328)	electrical conductivity (318.15 K, x1 = 0.2498)	viscosity (318.15 K, x1 = 0.2498)	electrical conductivity (318.15 K, x1 = 0.328)	viscosity (318.15 K, x1 = 0.328)	electrical conductivity (303.15 K, x1 = 0.1001)	viscosity (303.15 K, x1 = 0.1001)
CC(=O)[O-].[NH4+] + CC(=O)[O-].CC[n+]1ccn(C)c1	0.0734 ± 0.0015 S/m	1020 ± 74 mPa·s	0.215 ± 0.0043 S/m	273 ± 18 mPa·s	0.148 ± 0.003 S/m	458 ± 31 mPa·s	0.494 ± 0.0099 S/m	76.2 ± 4.9 mPa·s	0.41 ± 0.0082 S/m	101.3 ± 6.6 mPa·s	0.286 ± 0.0057 S/m	197 ± 13 mPa·s	0.449 ± 0.009 S/m	106.6 ± 6.9 mPa·s	0.371 ± 0.0074 S/m	144.6 ± 9.4 mPa·s		
CC(=O)[O-].[Na+] + CC(=O)[O-].CC[n+]1ccn(C)c1																	0.252 ± 0.005 S/m	147.4 ± 9.7 mPa·s
